Data taken from ChEMBL document CHEMBL5678816, “A Next-Generation TRK Kinase Inhibitor Overcomes Acquired Resistance to Prior TRK Kinase Inhibition in Patients with TRK Fusion-Positive Solid Tumors” (Cancer Discov, 2017).
Activity calls are given as the source filed them. The rule behind the calls is not given here.

Columns and labels:
[1] = target: Ribosomal protein S6 kinase alpha-6 (Homo sapiens) (UniProt Q9UK32); experiment: Inhibition of Rsk4 (unknown origin) at 1 uM in presence of ATP relative to control; values are per cent of control
[2] = target: Tyrosine-protein kinase Lyn (Homo sapiens) (UniProt P07948); experiment: Inhibition of Lyn (unknown origin) at 1 uM in presence of ATP relative to control; values are per cent of control
[3] = target: Calcium/calmodulin-dependent protein kinase type 1 (Homo sapiens) (UniProt Q14012); experiment: Inhibition of CAMK1 (unknown origin) at 1 uM in presence of ATP relative to control; values are per cent of control
[4] = target: Protein kinase C delta type (Homo sapiens) (UniProt Q05655); experiment: Inhibition of PKCdelta (unknown origin) at 1 uM in presence of ATP relative to control; values are per cent of control
[5] = target: Fibroblast growth factor receptor 3 (Homo sapiens) (UniProt P22607); experiment: Inhibition of FGFR3 (unknown origin) at 1 uM in presence of ATP relative to control; values are per cent of control
[6] = target: Epidermal growth factor receptor (Homo sapiens) (UniProt P00533); experiment: Inhibition of EGFR (unknown origin) at 1 uM in presence of ATP relative to control; values are per cent of control
NIH3T3 = type: functional, organism-based; settings: Mus musculus, dose 30-300 mg/kg, route po, time 9.0 day
[7] = target: Serine/threonine-protein kinase D2 (Homo sapiens) (UniProt Q9BZL6); experiment: Inhibition of PKD2 (unknown origin) at 1 uM in presence of ATP relative to control; values are per cent of control
[8] = target: Protein kinase C epsilon type (Homo sapiens) (UniProt Q02156); experiment: Inhibition of PKCepsilon (unknown origin) at 1 uM in presence of ATP relative to control; values are per cent of control
D283 Med = experiment: Inhibition of cell proliferation in human D283 Med cells upto 10 umol/L incubated for 72 hrs by DAPI staining based analysis; type: functional; settings: dose <= 10.0 µmol/L
[9] = target: Ephrin type-A receptor 3 (Homo sapiens) (UniProt P29320); experiment: Inhibition of EphA3 (unknown origin) at 1 uM in presence of ATP relative to control; values are per cent of control
UMUC3 = experiment: Inhibition of cell proliferation in human UMUC3 cells upto 10 umol/L incubated for 72 hrs by DAPI staining based analysis; type: functional; settings: dose <= 10.0 µmol/L
[10] = target: Ephrin type-B receptor 1 (Homo sapiens) (UniProt P54762); experiment: Inhibition of EphB1 (unknown origin) at 1 uM in presence of ATP relative to control; values are per cent of control
[11] = target: cGMP-dependent protein kinase 1 (Homo sapiens) (UniProt Q13976); experiment: Inhibition of PRKG1beta (unknown origin) at 1 uM in presence of ATP relative to control; values are per cent of control
[12] = target: Ephrin type-A receptor 8 (Homo sapiens) (UniProt P29322); experiment: Inhibition of EphA8 (unknown origin) at 1 uM in presence of ATP relative to control; values are per cent of control
K562 = experiment: Inhibition of cell proliferation in human K562 cells upto 10 umol/L incubated for 72 hrs by DAPI staining based analysis; type: functional; settings: dose <= 10.0 µmol/L
[13] = target: Cyclin-dependent kinase 5/CDK5 activator 1 (Homo sapiens) (UniProt Q00535+Q15078); experiment: Inhibition of CDK5/p35 (unknown origin) at 1 uM in presence of ATP relative to control; values are per cent of control
Homo sapiens = species on record: Homo sapiens; experiment: Inhibition of PKCgamma (unknown origin) at 1 uM in presence of ATP relative to control; values are per cent of control
[14] = Oral bioavailability in dog at 10 mg/kg administered as 0.5% carboxymethylcellulose 0.02% sodium dodecyl sulfate formulation by LC-MS analysis; type: ADME, organism-based, Canis lupus familiaris; settings: in vivo
[15] = target: Dual specificity protein kinase CLK2 (Homo sapiens) (UniProt P49760); experiment: Inhibition of CLK2 (unknown origin) at 1 uM in presence of ATP relative to control; values are per cent of control
[16] = Toxicity in nu/nu NCr mouse implanted with mouse NIH3T3 cells harboring extracellular domain deleted TRKA G595R mutant assessed as body weight loss at 30 to 300 mg/kg, po administered twice daily for 12 days relative to control; type: organism-based; settings: in vivo, 288 h, dose 30-300 mg/kg, time 12 day
[17] = target: Homeodomain-interacting protein kinase 2 (Homo sapiens) (UniProt Q9H2X6); experiment: Inhibition of HIPK2 (unknown origin) at 1 uM in presence of ATP relative to control; values are per cent of control
SW579 = experiment: Inhibition of cell proliferation in human SW579 cells upto 10 umol/L incubated for 72 hrs by DAPI staining based analysis; type: functional; settings: dose <= 10.0 µmol/L
[18] = target: Tyrosine-protein kinase Fgr (Homo sapiens) (UniProt P09769); experiment: Inhibition of Fgr (unknown origin) at 1 uM in presence of ATP relative to control; values are per cent of control
[19] = target: Insulin receptor (Homo sapiens) (UniProt P06213); experiment: Inhibition of IR (unknown origin) at 1 uM in presence of ATP relative to control; values are per cent of control
[20] = target: Protein kinase C theta type (Homo sapiens) (UniProt Q04759); experiment: Inhibition of PKCtheta (unknown origin) at 1 uM in presence of ATP relative to control; values are per cent of control
[21] = target: Serine/threonine-protein kinase TAO3 (Homo sapiens) (UniProt Q9H2K8); experiment: Inhibition of TAO3 (unknown origin) at 1 uM in presence of ATP relative to control; values are per cent of control
[22] = target: Protein-tyrosine kinase 6 (Homo sapiens) (UniProt Q13882); experiment: Inhibition of PTK6 (unknown origin) at 1 uM in presence of ATP relative to control; values are per cent of control
[23] = target: Cyclin-dependent kinase 1/cyclin B1 (Homo sapiens) (UniProt P06493+P14635); experiment: Inhibition of CDK1/cyclinB (unknown origin) at 1 uM in presence of ATP relative to control; values are per cent of control

Protein kinase C delta type (Homo sapiens), sequence (Q05655 whole entry, looked up): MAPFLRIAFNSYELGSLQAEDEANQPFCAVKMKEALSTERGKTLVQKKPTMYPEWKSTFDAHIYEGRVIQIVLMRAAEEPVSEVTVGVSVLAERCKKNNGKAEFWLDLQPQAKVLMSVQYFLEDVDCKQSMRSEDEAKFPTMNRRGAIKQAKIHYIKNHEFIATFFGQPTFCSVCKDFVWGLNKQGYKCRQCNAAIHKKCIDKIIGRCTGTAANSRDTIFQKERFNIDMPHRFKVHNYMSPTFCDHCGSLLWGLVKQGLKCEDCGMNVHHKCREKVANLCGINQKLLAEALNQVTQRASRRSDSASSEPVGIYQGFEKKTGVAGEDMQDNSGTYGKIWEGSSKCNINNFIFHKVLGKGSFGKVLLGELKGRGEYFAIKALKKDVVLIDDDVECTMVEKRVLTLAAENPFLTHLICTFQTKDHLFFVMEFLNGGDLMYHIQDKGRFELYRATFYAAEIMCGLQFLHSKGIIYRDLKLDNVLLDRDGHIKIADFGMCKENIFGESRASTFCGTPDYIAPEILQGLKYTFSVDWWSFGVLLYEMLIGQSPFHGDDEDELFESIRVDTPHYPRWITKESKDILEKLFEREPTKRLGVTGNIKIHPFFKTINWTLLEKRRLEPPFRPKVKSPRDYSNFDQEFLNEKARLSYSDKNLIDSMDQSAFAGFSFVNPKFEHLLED
Protein kinase C epsilon type (Homo sapiens), sequence (Q02156 whole entry): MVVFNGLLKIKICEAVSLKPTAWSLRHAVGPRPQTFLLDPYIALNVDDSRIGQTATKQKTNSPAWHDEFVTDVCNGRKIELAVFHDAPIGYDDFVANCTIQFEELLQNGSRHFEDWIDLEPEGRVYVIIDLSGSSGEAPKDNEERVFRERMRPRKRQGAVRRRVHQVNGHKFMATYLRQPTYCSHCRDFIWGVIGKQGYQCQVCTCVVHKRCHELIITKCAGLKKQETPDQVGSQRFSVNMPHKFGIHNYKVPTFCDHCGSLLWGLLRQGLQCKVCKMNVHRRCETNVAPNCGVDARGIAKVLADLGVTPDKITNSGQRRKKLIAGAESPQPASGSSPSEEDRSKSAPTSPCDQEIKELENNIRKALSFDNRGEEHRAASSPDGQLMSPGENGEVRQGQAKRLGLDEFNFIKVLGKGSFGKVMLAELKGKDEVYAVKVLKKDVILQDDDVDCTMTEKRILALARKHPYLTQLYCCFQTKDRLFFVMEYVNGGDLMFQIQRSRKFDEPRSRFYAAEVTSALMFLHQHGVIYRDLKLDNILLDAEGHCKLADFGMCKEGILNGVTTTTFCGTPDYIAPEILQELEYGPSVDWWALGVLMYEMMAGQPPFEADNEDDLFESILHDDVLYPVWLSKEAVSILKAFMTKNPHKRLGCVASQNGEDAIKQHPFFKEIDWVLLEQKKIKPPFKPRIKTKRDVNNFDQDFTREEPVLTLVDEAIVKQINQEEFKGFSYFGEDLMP
Calcium/calmodulin-dependent protein kinase type 1 (Homo sapiens), sequence (Q14012 whole entry, looked up): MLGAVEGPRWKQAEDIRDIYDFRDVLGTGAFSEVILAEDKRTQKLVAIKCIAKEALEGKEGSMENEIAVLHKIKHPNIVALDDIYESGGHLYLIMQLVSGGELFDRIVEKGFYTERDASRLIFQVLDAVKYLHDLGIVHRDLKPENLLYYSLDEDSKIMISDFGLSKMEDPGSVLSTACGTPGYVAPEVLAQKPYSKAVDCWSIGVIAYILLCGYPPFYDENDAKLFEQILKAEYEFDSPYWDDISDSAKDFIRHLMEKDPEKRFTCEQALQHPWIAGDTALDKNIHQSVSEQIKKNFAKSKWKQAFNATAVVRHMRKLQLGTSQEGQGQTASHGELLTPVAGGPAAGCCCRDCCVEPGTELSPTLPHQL
Serine/threonine-protein kinase D2 (Homo sapiens), sequence (Q9BZL6 whole entry): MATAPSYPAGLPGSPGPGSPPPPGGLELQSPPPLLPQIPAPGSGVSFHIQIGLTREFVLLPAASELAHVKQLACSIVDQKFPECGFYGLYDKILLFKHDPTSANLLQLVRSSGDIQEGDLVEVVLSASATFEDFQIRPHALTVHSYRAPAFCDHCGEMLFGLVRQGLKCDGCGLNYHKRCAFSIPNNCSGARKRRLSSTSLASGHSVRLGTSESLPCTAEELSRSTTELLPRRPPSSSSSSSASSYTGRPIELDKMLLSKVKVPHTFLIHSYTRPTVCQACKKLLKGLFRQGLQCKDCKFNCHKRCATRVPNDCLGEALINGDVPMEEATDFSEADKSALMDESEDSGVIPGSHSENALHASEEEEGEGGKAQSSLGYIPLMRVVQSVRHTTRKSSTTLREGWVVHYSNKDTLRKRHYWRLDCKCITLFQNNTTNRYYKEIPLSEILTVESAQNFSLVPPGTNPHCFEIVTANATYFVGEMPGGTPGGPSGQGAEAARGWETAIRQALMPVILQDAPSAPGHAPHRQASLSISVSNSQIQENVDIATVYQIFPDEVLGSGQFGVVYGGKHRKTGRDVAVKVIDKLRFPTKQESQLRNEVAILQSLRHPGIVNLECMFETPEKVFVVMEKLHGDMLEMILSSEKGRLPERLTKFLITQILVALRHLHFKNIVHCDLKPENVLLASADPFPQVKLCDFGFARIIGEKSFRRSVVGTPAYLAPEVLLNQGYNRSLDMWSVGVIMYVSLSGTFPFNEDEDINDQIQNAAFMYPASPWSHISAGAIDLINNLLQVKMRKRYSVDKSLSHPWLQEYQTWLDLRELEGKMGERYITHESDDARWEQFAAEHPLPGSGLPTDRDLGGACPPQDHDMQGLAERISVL
Tyrosine-protein kinase Fgr (Homo sapiens), sequence (P09769 2-529 limits assumed): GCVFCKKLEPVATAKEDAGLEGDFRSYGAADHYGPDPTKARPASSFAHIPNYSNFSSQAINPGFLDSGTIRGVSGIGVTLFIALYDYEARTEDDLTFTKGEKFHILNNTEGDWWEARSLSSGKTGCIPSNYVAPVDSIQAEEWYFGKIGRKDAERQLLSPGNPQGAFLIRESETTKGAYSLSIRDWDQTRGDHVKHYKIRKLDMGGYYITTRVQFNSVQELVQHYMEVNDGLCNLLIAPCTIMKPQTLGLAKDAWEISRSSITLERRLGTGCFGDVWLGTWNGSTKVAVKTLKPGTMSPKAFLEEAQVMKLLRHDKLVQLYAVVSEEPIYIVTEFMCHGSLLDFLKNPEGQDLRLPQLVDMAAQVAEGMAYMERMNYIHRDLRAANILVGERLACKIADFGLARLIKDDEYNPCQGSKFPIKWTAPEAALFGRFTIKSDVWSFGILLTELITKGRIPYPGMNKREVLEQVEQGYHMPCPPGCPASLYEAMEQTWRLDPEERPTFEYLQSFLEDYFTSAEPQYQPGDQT
Serine/threonine-protein kinase TAO3 (Homo sapiens), sequence (Q9H2K8 whole entry): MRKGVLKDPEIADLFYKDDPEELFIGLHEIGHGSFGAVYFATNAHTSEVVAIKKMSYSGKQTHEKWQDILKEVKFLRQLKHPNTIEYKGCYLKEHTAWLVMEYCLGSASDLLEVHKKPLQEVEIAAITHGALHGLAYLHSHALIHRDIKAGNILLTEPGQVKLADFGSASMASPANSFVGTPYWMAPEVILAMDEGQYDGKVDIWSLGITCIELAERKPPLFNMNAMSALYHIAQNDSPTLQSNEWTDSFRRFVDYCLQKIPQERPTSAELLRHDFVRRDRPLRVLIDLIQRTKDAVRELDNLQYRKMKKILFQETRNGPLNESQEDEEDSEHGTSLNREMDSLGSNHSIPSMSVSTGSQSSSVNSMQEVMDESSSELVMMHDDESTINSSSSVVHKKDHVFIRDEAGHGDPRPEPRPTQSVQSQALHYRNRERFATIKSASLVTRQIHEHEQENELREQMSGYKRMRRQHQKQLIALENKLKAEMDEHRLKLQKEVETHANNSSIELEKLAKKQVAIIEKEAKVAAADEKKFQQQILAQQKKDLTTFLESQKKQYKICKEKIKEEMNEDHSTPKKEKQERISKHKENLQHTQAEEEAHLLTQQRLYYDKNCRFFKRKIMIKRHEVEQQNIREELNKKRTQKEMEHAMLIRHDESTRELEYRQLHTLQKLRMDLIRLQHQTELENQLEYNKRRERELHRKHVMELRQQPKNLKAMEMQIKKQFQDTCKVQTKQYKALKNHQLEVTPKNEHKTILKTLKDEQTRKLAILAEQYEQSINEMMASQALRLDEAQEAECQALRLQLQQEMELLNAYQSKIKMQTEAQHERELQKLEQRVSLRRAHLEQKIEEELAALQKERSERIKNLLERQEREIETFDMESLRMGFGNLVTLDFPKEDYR
Dual specificity protein kinase CLK2 (Homo sapiens), sequence (P49760 whole entry, looked up, the tested form may be a part): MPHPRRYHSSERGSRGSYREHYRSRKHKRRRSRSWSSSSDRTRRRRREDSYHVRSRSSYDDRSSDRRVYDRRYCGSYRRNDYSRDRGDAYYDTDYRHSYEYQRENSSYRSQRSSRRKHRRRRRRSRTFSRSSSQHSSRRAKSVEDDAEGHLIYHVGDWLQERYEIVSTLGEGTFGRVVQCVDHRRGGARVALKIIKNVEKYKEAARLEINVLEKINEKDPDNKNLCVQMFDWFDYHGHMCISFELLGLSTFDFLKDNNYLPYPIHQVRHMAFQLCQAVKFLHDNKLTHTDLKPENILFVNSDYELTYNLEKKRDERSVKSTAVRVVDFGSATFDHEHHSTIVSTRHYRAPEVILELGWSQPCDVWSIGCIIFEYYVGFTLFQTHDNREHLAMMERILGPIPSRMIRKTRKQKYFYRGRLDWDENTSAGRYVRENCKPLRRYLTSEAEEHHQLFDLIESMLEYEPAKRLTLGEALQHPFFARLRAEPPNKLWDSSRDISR
Protein-tyrosine kinase 6 (Homo sapiens), sequence (Q13882 whole entry, looked up): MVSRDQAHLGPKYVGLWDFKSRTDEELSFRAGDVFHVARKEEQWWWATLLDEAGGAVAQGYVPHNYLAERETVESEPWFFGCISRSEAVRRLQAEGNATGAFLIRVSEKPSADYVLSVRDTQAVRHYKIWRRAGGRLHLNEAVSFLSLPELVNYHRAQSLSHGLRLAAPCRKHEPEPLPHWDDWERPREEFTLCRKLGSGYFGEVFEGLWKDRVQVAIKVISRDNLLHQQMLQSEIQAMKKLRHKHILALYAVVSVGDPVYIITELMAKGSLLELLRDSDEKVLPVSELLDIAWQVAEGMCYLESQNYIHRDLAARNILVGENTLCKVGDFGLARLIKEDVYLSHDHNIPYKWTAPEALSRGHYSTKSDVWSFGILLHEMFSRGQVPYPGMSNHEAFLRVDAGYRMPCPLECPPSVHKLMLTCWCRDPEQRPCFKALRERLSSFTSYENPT

With `C[C@@H]1CCc2ncc(F)cc2[C@H]2CCCN2c2ccn3ncc(c3n2)C(=O)N1` [SELITRECTINIB] the residual activity [1] was 127%, the residual activity [2] was 98% and the residual activity [3] was 107%. The residual activity [4] was 108%, the residual activity [5] was 119% and the residual activity [6] was 103%. For the same compound, the Activity (NIH3T3) was “Active”, the residual activity [7] was 110% and the residual activity [8] was 102%. For the same compound, the inhibition (D283 Med) was “inactive”, the residual activity [9] was 104% and the inhibition (UMUC3) was “inactive”. The residual activity [10] was 112%, the residual activity [11] was 114% and the residual activity [12] was 81.5%. The inhibition (K562) was “inactive”, the residual activity [13] was 110% and the residual activity (Homo sapiens) was 97.5%. For the same compound, the bioavailability [14] was 42%, the residual activity [15] was 96.5% and the Activity [16] was less than 5%. For the same compound, the residual activity [17] was 113%, the inhibition (SW579) was “inactive” and the residual activity [18] was 96%. The residual activity [19] was 92%, the residual activity [20] was 108% and the residual activity [21] was 102%. For the same compound, the residual activity [22] was 98.5% and the residual activity [23] was 102%.
